Laboratory results reported in patent US8263621B2, “Tartrate derivatives for use as coagulation factor IXa inhibitors” (Sanofi, priority 2006, dated 2012).
pIC50: −log10 of the molar value.

Molecular target: T1, factor IXa (Homo sapiens, UniProt P00740)
T1 construct: Factor IX is a proenzyme; purchased Calbiochem (Merck KGaA) 233290
Assay: Factor IXa enzyme assay (inhibition of enzymatic activity of FIXa, substrate PEFA 3107)
Type: biochemical
Conditions: 277 nM factor IXa, pH 7.4, 15 min preincubation at room temperature, read at 405 nm
Description: The prepared substances from the examples were tested for inhibition of the enzymatic activity of FIXa using the substrate PEFA 3107 (Pentapharm/Loxo; via S. Black GmbH, Baumstrasse 41, 47198 Duisburg, Germany; Pr. No. 095-20) and factor IXa (Calbiochem, Merck KGaA markets Calbiochem in Germany, Life Science & Analytics, 64293 Darmstadt; Pr. No. 233290). In this method, 28 μl of test buffer (50 mM α,α,α-tris(hydroxymethyl)methylamine (TRIS), 100 mM NaCl, 5 mM CaCl2, 0.1% bovine serum albumin, pH 7.4) and 10 μl of factor IXa (277 nM final concentration in the test batch) were added to 2 μl of 10 mM dimethyl sulfoxide solution of the respective test substance, and the mixture was incubated for 15 minutes at room temperature in a 96 half-well microtiter plate. The enzyme reaction was started by addition of 10 μl of substrate (1 mM stock solution in water). The time course of the reaction was monitored at 405 nm in a microtiter plate reader (SpectraMax plus 384; Molecular Devices) for 15 minutes. The IC50 was calculated from the averaged values (duplicate determination) of a dilution series of the test substance with the aid of the software Grafit 4 (Erithacus Software, UK). The inhibition constants (Ki) were calculated according to the Cheng Prusoff equation Ki=IC50/(1+(S/Km), where S=concentration of the test substrate in the test and Km=Michaelis-Menten constant.

T1 sequence (P00740 227-461 limits assumed): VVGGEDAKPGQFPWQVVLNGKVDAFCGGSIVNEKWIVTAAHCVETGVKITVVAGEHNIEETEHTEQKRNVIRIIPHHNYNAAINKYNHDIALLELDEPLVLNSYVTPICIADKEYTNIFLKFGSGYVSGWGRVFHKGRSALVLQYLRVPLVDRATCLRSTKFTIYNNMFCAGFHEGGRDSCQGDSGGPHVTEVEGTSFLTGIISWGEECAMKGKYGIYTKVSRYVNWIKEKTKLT
T1 sequence (P00740 47-191 partner limits assumed): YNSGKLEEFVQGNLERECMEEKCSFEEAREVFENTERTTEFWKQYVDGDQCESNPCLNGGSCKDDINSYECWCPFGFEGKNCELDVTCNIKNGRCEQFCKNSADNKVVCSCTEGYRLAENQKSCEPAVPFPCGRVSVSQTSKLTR

## Cc1ccc(NC(=O)[C@H](O)[C@@H](O)C(=O)Nc2ccc(C(=N)N)cc2)cc1 [Example 5, (2R,3R)—N-(4-Carbamimidoylphenyl)-2,3-dihydroxy-N′-p-tolylsuccinamide; compound with trifluoroacetic acid]
  pIC50: 6.77

## Nc1nc2ccc(NC(=O)[C@H](O)[C@@H](O)C(=O)Nc3ccc(Oc4ccccc4)cc3)cc2[nH]1 [Example 12, (2R,3R)—N-(2-amino-3H-benzimidazol-5-yl)-2,3-dihydroxy-N′-(4-phenoxyphenyl)-tartaramide]
  pIC50: 6.43

## Cc1ccc(NC(=O)[C@H](O)[C@@H](O)C(=O)Nc2ccc3c(N)nccc3c2)cc1 [Example 1, (2R,3R)—N-(1-Aminoisoquinolin-6-yl)-2,3-dihydroxy-N′-p-tolyltartaramide; compound with trifluoroacetic acid]
  pIC50: 6.66
